Experimental data reported in article PMC3209665 (Chemical biology & drug design, 2009).

Test: Solubility in ITC buffer
Format: physicochemical
Details: 10 mM sodium acetate, pH 5.0, 2% DMSO

**Q.** Which solubility does the source give for KNI-10006 here?
**A.** limited solubility
